US20250340886A1, “INTRACELLULAR KINASE ASSOCIATED WITH RESISTANCE AGAINST ANTI-TUMOUR IMMUNE RESPONSES, AND USES THEREOF” (iOmx Therapeutics AG, priority 2017, published 2025)
Read-outs that look alike come from different tables or passages of the source.

Key:
SIK2 = SIK2 (Homo sapiens (Human), UniProt Q9H0K1); experiment: radiometric protein kinase assay (33PanQinase Activity Assay, ProQinase Free Choice Kinase Assay); type: biochemical; conditions: ATP 1.0 uM, read-out: SIK2 IC50 rank
SIK3 = SIK3 (Homo sapiens (Human), UniProt Q9Y2K2); experiment: as above; type: biochemical; conditions: read-out: SIK3 IC50 rank
SIK3, sequence (Q9Y2K2 whole entry): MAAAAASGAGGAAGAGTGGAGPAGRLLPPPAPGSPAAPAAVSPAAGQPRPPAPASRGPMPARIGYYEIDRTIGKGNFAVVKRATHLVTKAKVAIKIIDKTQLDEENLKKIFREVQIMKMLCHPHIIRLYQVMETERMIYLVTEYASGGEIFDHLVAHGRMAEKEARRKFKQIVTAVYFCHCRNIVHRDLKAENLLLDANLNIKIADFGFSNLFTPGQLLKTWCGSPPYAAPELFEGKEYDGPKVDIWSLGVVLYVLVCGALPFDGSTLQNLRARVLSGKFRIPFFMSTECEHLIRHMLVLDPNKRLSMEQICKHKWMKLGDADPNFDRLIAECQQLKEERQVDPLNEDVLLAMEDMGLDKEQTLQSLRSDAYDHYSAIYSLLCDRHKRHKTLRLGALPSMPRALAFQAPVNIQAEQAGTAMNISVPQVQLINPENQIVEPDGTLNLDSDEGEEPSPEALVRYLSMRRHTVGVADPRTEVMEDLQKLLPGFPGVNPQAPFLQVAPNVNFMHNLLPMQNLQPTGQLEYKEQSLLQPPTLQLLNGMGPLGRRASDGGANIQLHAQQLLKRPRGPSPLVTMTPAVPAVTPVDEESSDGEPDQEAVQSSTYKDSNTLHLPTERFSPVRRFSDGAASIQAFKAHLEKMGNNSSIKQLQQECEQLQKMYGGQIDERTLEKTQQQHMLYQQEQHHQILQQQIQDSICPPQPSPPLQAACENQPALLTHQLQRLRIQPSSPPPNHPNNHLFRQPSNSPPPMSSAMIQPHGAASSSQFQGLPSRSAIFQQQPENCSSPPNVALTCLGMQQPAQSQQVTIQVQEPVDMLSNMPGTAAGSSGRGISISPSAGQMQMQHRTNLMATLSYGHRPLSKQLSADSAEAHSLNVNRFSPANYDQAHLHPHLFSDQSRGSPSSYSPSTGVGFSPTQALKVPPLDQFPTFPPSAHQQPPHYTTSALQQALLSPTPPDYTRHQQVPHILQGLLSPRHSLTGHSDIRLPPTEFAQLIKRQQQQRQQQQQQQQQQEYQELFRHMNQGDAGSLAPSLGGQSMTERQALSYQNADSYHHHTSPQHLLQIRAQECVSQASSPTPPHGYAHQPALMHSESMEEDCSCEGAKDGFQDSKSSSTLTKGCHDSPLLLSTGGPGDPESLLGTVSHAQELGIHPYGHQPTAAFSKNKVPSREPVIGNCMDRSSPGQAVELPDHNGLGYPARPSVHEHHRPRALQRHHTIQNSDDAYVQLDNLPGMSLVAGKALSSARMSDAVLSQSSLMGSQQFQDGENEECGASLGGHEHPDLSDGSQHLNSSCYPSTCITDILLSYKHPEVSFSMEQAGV

SIK1 = SIK1 (Homo sapiens (Human), UniProt P57059); experiment: as above; type: biochemical; conditions: read-out: SIK1 IC50 rank
SIK1, sequence (P57059 whole entry): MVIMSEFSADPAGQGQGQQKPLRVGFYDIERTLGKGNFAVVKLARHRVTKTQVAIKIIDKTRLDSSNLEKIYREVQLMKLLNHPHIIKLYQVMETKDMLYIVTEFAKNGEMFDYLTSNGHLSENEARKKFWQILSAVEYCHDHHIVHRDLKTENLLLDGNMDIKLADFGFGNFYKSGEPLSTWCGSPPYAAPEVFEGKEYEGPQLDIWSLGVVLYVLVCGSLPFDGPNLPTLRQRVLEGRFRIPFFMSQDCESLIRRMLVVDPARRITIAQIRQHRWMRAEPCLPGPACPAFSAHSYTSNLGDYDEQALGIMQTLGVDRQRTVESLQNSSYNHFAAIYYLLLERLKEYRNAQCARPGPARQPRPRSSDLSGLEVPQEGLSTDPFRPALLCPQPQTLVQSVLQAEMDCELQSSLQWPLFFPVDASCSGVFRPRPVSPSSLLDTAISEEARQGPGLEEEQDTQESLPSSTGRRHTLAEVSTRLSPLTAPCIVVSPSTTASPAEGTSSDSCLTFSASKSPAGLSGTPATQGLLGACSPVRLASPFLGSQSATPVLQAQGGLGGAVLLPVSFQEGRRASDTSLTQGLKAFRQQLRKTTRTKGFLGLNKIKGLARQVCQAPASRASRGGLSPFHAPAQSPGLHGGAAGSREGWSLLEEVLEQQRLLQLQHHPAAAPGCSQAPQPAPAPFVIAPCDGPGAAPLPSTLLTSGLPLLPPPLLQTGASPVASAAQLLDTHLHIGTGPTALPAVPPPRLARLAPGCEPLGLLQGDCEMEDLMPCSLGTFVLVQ

PANC-1-luc cells = experiment: luciferase-based T cell-mediated killing assay of siRNA-transfected PANC-1-luc cells; parameters: species or system human; conditions: absence of T cells (viability setting)
Description: FIG. 2: Luciferase-based cytotoxicity assay for the assessment of T cell-mediated killing of siRNA transfected PANC-1-luc cells.
The inventors describe herein their surprising finding that SIK3 is a gene involved in tumour cell resistance against a cell-mediated immune response. Such role of SIK3 was first identified by the inventors using a high-throughput screening approach—to identify novel genes involved in mechanisms of tumour resistance towards T cell attack—as adapted and expanded from the screening approach developed and described by Khandelwal et al, 2015 (EMBO Mol Med 7:450). Briefly, using a siRNA library, 2514 genes were individually knocked-down in HLA-A2.1+ luciferase-expressing PANC1 cells (PANC1-luc), a pancreatic adenocarcinoma (PDAC) tumour cell line. Each gene's siRNA-transfected PANC1-luc tumour cells were then co-cultured with magnetically purified CD8+ T cells from an HLA-A2.1+ PDAC-derived tumour infiltrating lymphocyte culture (TIL #1). The impact of siRNA-mediated gene knockdown on TIL-mediated killing of tumour cells was measured using a luciferase-based cytotoxicity assay (cytotoxicity setting). In order to exclude those genes whose knockdown intrinsically affects cell viability, complementary screening was performed without the addition of TIL #1 (viability setting). False positive genes were further excluded using a luciferase-independent viability screen.
The present invention is based on the dramatic impact that inhibition of SIK3 of tumour cells determines a reduction of tumour cell survival after co-culture with a cell-mediated immune response. […]
The PANC1-luc cell line was constructed as follows: PANC-1 cells were acquired from the American Type Cell Culture (ATCC). […] After lysis, luciferase assay buffer was added and immediately the luciferase intensity was measured by using the TECAN-Spark microplate reader.

ABL1 wt = ABL1 wt (Homo sapiens (Human), UniProt P00519); experiment: radiometric protein kinase assay (33PanQinase Activity Assay, ProQinase Free Choice Kinase Assay); type: biochemical; conditions: indicative IC50, Table 4; ATP 0.3 uM; read-out: ABL1 IC50 rank
ABL1 wt, sequence (P00519 whole entry): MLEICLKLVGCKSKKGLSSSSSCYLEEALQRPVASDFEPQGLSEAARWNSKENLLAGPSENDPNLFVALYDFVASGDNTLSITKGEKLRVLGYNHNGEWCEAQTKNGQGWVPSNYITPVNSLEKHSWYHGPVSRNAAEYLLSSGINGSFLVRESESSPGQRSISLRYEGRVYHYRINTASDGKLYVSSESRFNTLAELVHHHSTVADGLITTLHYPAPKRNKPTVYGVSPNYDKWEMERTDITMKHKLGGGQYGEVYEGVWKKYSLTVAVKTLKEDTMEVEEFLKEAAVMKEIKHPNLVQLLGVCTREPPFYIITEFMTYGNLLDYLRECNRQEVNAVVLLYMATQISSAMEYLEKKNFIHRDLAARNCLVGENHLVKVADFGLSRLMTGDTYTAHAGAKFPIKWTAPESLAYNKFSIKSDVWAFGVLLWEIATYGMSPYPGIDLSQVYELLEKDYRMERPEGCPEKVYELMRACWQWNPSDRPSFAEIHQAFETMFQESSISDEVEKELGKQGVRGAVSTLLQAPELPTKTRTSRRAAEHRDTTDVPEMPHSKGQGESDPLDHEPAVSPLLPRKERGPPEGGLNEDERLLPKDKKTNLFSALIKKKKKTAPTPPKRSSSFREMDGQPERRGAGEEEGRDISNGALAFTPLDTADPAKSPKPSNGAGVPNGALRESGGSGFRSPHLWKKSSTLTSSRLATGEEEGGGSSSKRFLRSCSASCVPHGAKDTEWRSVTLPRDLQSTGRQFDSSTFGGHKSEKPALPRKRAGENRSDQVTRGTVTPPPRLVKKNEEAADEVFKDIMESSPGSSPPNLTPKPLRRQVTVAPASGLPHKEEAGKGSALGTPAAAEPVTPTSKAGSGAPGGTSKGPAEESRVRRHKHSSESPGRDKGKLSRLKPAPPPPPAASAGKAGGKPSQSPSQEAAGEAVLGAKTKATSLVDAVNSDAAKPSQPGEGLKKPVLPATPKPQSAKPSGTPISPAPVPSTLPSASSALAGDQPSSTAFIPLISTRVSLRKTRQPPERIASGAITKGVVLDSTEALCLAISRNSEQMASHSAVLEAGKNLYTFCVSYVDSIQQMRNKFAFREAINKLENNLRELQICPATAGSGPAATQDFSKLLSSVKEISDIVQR

SRC (GST-HIS-tag) = SRC (GST-HIS-tag) (Homo sapiens (Human), UniProt P12931); experiment: as above; type: biochemical; conditions: indicative IC50, Table 4; ATP 0.3 uM; read-out: SRC IC50 rank
SRC (GST-HIS-tag), sequence (P12931 whole entry, looked up): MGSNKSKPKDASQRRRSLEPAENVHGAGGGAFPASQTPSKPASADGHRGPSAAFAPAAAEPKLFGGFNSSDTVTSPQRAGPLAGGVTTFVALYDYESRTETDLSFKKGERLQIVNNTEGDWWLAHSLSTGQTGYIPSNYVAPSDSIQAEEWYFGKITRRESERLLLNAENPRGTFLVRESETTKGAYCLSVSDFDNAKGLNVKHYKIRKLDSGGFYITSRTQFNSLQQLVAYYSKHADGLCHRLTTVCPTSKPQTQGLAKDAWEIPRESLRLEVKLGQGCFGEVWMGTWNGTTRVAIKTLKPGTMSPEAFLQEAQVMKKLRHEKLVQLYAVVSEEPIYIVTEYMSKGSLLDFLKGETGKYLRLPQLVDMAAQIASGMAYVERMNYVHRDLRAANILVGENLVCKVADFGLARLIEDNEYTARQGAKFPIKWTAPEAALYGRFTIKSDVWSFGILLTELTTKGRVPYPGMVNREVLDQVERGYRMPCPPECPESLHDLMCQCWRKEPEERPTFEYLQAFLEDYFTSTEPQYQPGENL

[1] = indicative IC50, Table 2A, ATP 1.0 uM
[2] = indicative IC50, Table 2A, ATP 3.0 uM
[3] = indicative IC50, Table 4, ATP 1.0 uM
[4] = indicative IC50, Table 4, ATP 3.0 uM

SIK2, sequence (Q9H0K1 whole entry): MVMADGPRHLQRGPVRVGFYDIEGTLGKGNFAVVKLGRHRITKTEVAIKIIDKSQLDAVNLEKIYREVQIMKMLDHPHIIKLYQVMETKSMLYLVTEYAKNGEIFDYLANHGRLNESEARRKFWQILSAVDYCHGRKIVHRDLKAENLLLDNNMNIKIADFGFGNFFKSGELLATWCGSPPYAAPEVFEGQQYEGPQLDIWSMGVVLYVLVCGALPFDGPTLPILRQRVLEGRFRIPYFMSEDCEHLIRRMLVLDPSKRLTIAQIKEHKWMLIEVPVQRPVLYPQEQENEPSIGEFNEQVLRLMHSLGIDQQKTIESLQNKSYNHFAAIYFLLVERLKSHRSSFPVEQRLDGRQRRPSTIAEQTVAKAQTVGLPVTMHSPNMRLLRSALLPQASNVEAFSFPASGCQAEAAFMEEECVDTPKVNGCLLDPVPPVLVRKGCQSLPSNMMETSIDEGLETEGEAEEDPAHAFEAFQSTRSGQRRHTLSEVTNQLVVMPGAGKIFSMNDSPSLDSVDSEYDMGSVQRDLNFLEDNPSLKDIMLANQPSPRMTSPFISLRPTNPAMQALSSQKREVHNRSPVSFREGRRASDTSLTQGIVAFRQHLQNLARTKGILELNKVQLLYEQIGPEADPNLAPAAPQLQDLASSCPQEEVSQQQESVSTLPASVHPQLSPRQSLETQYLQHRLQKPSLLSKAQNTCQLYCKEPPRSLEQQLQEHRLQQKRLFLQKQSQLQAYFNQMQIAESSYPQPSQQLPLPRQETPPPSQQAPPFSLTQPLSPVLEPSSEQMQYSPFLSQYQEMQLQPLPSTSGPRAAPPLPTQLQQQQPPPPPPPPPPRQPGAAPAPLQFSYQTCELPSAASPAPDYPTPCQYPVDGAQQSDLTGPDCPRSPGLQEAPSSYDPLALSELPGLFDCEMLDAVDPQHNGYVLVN

Cc1nc(Nc2ncc(C(=O)Nc3c(F)cccc3Br)s2)cc(N2CCN(CCO)CC2)n1 [Compound A3, N-(2-bromo-6-fluorophenyl)-2-((6-(4-(2-hydroxyethyl)piperazin-1-yl)-2-methylpyrimidin-4-yl)amino)thiazole-5-carboxamide]
IC50 (SIK2; indicative IC50, Table 2A): < 0.1 µM | IC50 (SIK3; [1]): < 0.1 µM | IC50 (SIK1; [2]): < 0.1 µM

Cc1nc(Nc2ncc(C(=O)Nc3ccc(F)c(Cl)c3)s2)cc(N2CCN(CCO)CC2)n1 [Compound B9]
IC50 (SIK2; indicative IC50, Table 4): > 0.5 µM | IC50 (SIK3): > 5 µM | IC50 (SIK1): > 5 µM

s3: SIK3 siRNA, sequence GCACUAACCUGCUUGGGUA, Dharmacon D-004779-06 (listed as RNA, chemistry not given here)
cell viability of tumour cells (PANC-1-luc cells): slight reduction of cell viability

Cc1nc(NCCO)cc(Nc2ncc(C(=O)Nc3c(C)cccc3Cl)s2)n1 [Compound B7, N-(2-chloro-6-methylphenyl)-2-((6-((2-hydroxyethyl)amino)-2-methylpyrimidin-4-yl)amino)thiazole-5-carboxamide]
IC50 (SIK2; indicative IC50, Table 4): < 0.1 µM | IC50 (SIK3; [3]): < 0.1 µM | IC50 (SIK1; [4]): < 0.1 µM | IC50 (ABL1 wt): < 0.1 µM | IC50 (SRC (GST-HIS-tag)): < 0.1 µM

Cc1nc(Nc2ncc(C(=O)Nc3c(Cl)cccc3Br)s2)cc(N2CCN(CCO)CC2)n1 [Compound B1, N-(2-bromo-6-chlorophenyl)-2-((6-(4-(2-hydroxyethyl)piperazin-1-yl)-2-methylpyrimidin-4-yl)amino)thiazole-5-carboxamide]
IC50 (SIK2; indicative IC50, Table 4): < 0.1 µM | IC50 (SIK3; [3]): < 0.1 µM | IC50 (SIK1; [4]): < 0.1 µM | IC50 (ABL1 wt): < 0.1 µM | IC50 (SRC (GST-HIS-tag)): < 0.1 µM

Cc1nc(Nc2ncc(C(=O)Nc3c(F)cccc3F)s2)cc(N2CCN(CCO)CC2)n1 [Compound A2, N-(2,6-difluorophenyl)-2-((6-{4-(2-hydroxyethyl)piperazin-1-yl)-2-methylpyrimidin-4-yl)amino)thiazole-5-carboxamide]
IC50 (SIK2; indicative IC50, Table 2A): < 0.1 µM | IC50 (SIK3; [1]): < 0.1 µM | IC50 (SIK1; [2]): < 0.1 µM

CC(=O)N1CCN(c2cc(Nc3ncc(C(=O)Nc4c(C)cccc4Cl)s3)nc(C)n2)CC1 [Compound B6, 2-((6-(4-acetylpiperazin-1-yl)-2-methylpyrimidin-4-yl)amino)-N-(2-chloro-6-methylphenyl)thiazole-5-carboxamide]
IC50 (SIK2; indicative IC50, Table 4): < 0.1 µM | IC50 (SIK3; [3]): < 0.1 µM | IC50 (SIK1; [4]): < 0.1 µM | IC50 (ABL1 wt): < 0.1 µM | IC50 (SRC (GST-HIS-tag)): < 0.1 µM

Cc1nc(Nc2ncc(C(=O)Nc3c(Cl)cccc3Cl)s2)cc(N2CCN(CCO)CC2)n1 [Compound A13, N-(2,6-dichlorophenyl)-2-((6-(4-(2-hydroxyethyl)piperazin-1-yl)-2-methylpyrimidin-4-yl)amino)thiazole-5-carboxamide]
IC50 (SIK2; indicative IC50, Table 2A): < 0.1 µM | IC50 (SIK3; [1]): < 0.1 µM | IC50 (SIK1; [2]): < 0.1 µM

s1: SIK3 siRNA, sequence GCGCCAGGCUUUAUCUUAU, Dharmacon D-004779-01 (listed as RNA, chemistry not given here)
cell viability of tumour cells (PANC-1-luc cells): slight reduction of cell viability

Cc1nc(Nc2ncc(C(=O)Nc3c(F)cccc3Cl)s2)cc(N2CCN(CCO)CC2)n1 [Compound A1, N-(2-chloro-6-fluorophenyl)-2-((6-(4-(2-hydroxyethyl)piperazin-1-yl)-2-methylpyrimidin-4-yl)amino)thiazole-5-carboxamide]
IC50 (SIK2; indicative IC50, Table 2A): < 0.1 µM | IC50 (SIK3; [1]): < 0.1 µM | IC50 (SIK1; [2]): < 0.1 µM

Cc1nc(Nc2ncc(C(=O)Nc3c(Br)cccc3Br)s2)cc(N2CCN(CCO)CC2)n1 [Compound B2, N-(2,6-dibromophenyl)-2-((6-(4-(2-hydroxyethyl)piperazin-1-yl)-2-methylpyrimidin-4-yl)amino)thiazole-5-carboxamide]
IC50 (SIK2; indicative IC50, Table 4): < 0.1 µM | IC50 (SIK3; [3]): > 0.1 µM | IC50 (SIK1; [4]): < 0.1 µM | IC50 (ABL1 wt): < 0.1 µM | IC50 (SRC (GST-HIS-tag)): < 0.1 µM

Cc1nc(Nc2ncc(C(=O)Nc3ccccc3Cl)s2)cc(N2CCN(CCO)CC2)n1 [Compound A10, N-(2-chlorophenyl)-2-((6-(4-(2-hydroxyethyl)piperazin-1-yl)-2-methylpyrimidin-4-yl)amino)thiazole-5-carboxamide]
IC50 (SIK2; indicative IC50, Table 2A): < 0.1 µM | IC50 (SIK3; [1]): > 0.1 µM | IC50 (SIK1; [2]): < 0.1 µM

COc1c(F)cccc1NC(=O)c1cnc(Nc2cc(N3CCN(CCO)CC3)nc(C)n2)s1 [Compound B4, N-(3-fluoro-2-methoxyphenyl)-2-((6-(4-(2-hydroxyethyl)piperazin-1-yl)-2-methylpyrimidin-4-yl)amino)thiazole-5-carboxamide]
IC50 (SIK2; indicative IC50, Table 4): > 0.1 µM | IC50 (SIK3; [3]): > 1 µM | IC50 (SIK1; [4]): > 0.1 µM | IC50 (ABL1 wt): < 0.1 µM | IC50 (SRC (GST-HIS-tag)): < 0.1 µM

s2: SIK3 siRNA, sequence GAACAGCGACGAUGCUUAU, Dharmacon D-004779-05 (listed as RNA, chemistry not given here)
cell viability of tumour cells (PANC-1-luc cells): slight reduction of cell viability

Cc1nc(Nc2ncc(C(=O)Nc3ccc(Br)cc3F)s2)cc(N2CCN(CCO)CC2)n1 [Compound A7, N-(4-bromo-6-fluorophenyl)-2-((6-(4-(2-hydroxyethyl)piperazin-1-yl)-2-methylpyrimidin-4-yl)amino)thiazole-5-carboxamide]
IC50 (SIK2; indicative IC50, Table 2A): > 0.1 µM | IC50 (SIK3; [1]): > 0.5 µM | IC50 (SIK1; [2]): < 0.1 µM

Cc1nc(Nc2ncc(C(=O)Nc3c(C)cccc3Cl)s2)cc(N2CCN(C)CC2)n1 [Compound B5, N-(2-chloro-6-methylphenyl)-2-((2-methyl-6-(4-methylpiperazin-1-yl)pyrimidin-4-yl)amino)thiazole-5-carboxamide]
IC50 (SIK2; indicative IC50, Table 4): < 0.1 µM | IC50 (SIK3; [3]): < 0.1 µM | IC50 (SIK1; [4]): < 0.1 µM | IC50 (ABL1 wt): < 0.1 µM | IC50 (SRC (GST-HIS-tag)): < 0.1 µM

Cc1nc(Nc2ncc(C(=O)Nc3ccccc3C)s2)cc(N2CCN(CCO)CC2)n1 [Compound A9, 2-((6-(4-(2-hydroxyethyl)piperazin-1-yl)-2-methylpyrimidin-4-yl)amino)-N-(o-tolyl)thiazole-5-carboxamide]
IC50 (SIK2; indicative IC50, Table 2A): < 0.1 µM | IC50 (SIK3; [1]): < 0.1 µM | IC50 (SIK1; [2]): < 0.1 µM

Cc1nc(Nc2ncc(C(=O)Nc3c(C)cccc3C)s2)cc(N2CCN(CCO)CC2)n1 [Compound A12, N-(2,6-dimethylphenyl)-2-((6-(4-(2-hydroxyethyl)piperazin-1-yl)-2-methylpyrimidin-4-yl)amino)thiazole-5-carboxamide]
IC50 (SIK2; indicative IC50, Table 2A): < 0.1 µM | IC50 (SIK3; [1]): < 0.1 µM | IC50 (SIK1; [2]): < 0.1 µM

C#Cc1cccc(NC(=O)c2cnc(Nc3cc(N4CCN(CCO)CC4)nc(C)n3)s2)c1 [Compound A4, N-(3-ethynylphenyl)-2-((6-(4-(2-hydroxyethyl)piperazin-1-yl)-2-methylpyrimidin-4-yl)amino)thiazole-5-carboxamide]
IC50 (SIK2; indicative IC50, Table 2A): > 0.1 µM | IC50 (SIK3; [1]): > 1 µM | IC50 (SIK1; [2]): > 1 µM

Cc1nc(Nc2ncc(C(=O)Nc3ccc(F)cc3)s2)cc(N2CCN(CCO)CC2)n1 [Compound A5, N-(4-fluorophenyl)-2-((6-(4-(2-hydroxyethyl)piperazin-1-yl)-2-methylpyrimidin-4-yl)amino)thiazole-5-carboxamide]
IC50 (SIK2; indicative IC50, Table 2A): > 0.1 µM | IC50 (SIK3; [1]): > 1 µM | IC50 (SIK1; [2]): > 0.1 µM
